In brackets after ≈: the same amount, converted by molar mass. Where two headings read alike, the source gives them in different places.
Columns and labels:
Str. pneumoniae A9585 = assay: Antibiotic activity in nutrient broth (MIC); assay type: cell-based; conditions: Streptococcus pneumoniae, A9585, inoculum 10^-3 dilution of overnight broth culture; 45% AAB + 5% serum + 50% broth; derivatives adjusted for BL-S640 content
Description: (§1) Antibiotic Activity In Nutrient Broth
(§2) * 45% AAB+ 5% serum+ 50% broth listed above.
(§3) ** Dilution of overnight broth culture.
(§4) Antibiotic Spectrum Nutrient Broth
(§5) * 45% AAB + 5% serum + 50% broth
(§6) Antibiotic Spectrum in Nutrient Broth
(§7) *45% AAB + 5% serum + 50% broth listed above.

Str. pyogenes A9604 = assay: Antibiotic activity in nutrient broth (MIC); assay type: cell-based; conditions: Streptococcus pyogenes, A9604, inoculum 10^-3; 45% AAB + 5% serum + 50% broth; derivatives adjusted for BL-S640 content; read-out: MIC
Description: as §1, §2, §3, §4, §5, §6, §7

[1] = Mouse blood levels after intramuscular administration; assay type: in vivo; conditions: for concentration at 0.25 h / concentration at 0.5 h / concentration at 1 h / concentration at 1.5 h: mouse, blood, im, 10 mg/kg, IM 10 mg./kg., 0.01% phosphate buffer
Protocol: Mouse Blood Levels After Intramuscular Administration
of 10 mg./kg. Body Weight
The compounds were dissolved in 0.01% phosphate buffer.
Mouse Blood Levels After IM
Administration of 10 mg./kg. Body Weight
The compounds were prepared in 0.01% phosphate
The compounds were prepared in 0.01% phosphate buffer.

[2] = Paper chromatography of rat urine for antibiotically active metabolites; assay type: in vivo; conditions: IM; rat urine 0-2 and 2-4 hours
Protocol: Paper chromatograms were run on rat urine collected between 0 and 2 and between 2 and 4 hours following IM administration of BL-S1055 and 640, for the detection of antibiotically active metabolites using descending chromatography with system No. 9 (butyl acetate:n-butanol:glacial acetic acid:H2 O= 80:15:40:24).

P. mirabilis A9900 = assay: IM PD50 in mice; assay type: in vivo; conditions: Proteus mirabilis
Description: Comparative IM PD50 Values of
(§8) BL-S640 Derivatives in Mice

Ps. aeruginosa A9843A = assay: Antibiotic activity in nutrient broth (MIC); assay type: cell-based; conditions: Pseudomonas aeruginosa
Description: as §1, §3, §4, §6

K. pneumoniae A15130 = assay: Antibiotic activity in nutrient broth (MIC); assay type: cell-based; conditions: Klebsiella pneumoniae, A15130, inoculum 10^-4; derivatives adjusted for BL-S640 content; read-out: MIC
Description: as §1, §3, §4, §6

Ent. cloacae A9659 = assay: Antibiotic activity in nutrient broth (MIC); assay type: cell-based; conditions: Enterobacter cloacae, A9659, inoculum 10^-4; derivatives adjusted for BL-S640 content; read-out: MIC
Description: as §1, §3, §4, §6

S. aureus Smith A9537 = assay: Antibiotic activity in nutrient broth (MIC); assay type: cell-based; conditions: derivatives adjusted for BL-S640 content
Description: as §1, §3, §4, §6

E. coli Juhl A15119 = assay: Antibiotic activity in nutrient broth (MIC); assay type: cell-based; conditions: Escherichia coli, JUHLA15119, inoculum 10^-4; derivatives adjusted for BL-S640 content; read-out: MIC
Description: as §1, §3, §4, §6

Ent. cloacae A9657 = assay: Antibiotic activity in nutrient broth (MIC); assay type: cell-based; conditions: Enterobacter cloacae, A9657, inoculum 10^-4; derivatives adjusted for BL-S640 content; read-out: MIC
Description: as §1, §3, §4, §6

Pr. mirabilis A9900 = assay: Antibiotic activity in nutrient broth (MIC); assay type: cell-based; conditions: Proteus mirabilis, inoculum 10^-4, derivatives adjusted for BL-S640 content
Description: as §1, §3, §4, §6

Ent. cloacae A9656 = assay: Antibiotic activity in nutrient broth (MIC); assay type: cell-based; conditions: Enterobacter cloacae, A9656, inoculum 10^-4; derivatives adjusted for BL-S640 content
Description: as §1, §3, §4, §6

E. coli A9675 = assay: Antibiotic activity in nutrient broth (MIC); assay type: cell-based; conditions: Escherichia coli, A9675, inoculum 10^-4; derivatives adjusted for BL-S640 content; read-out: MIC
Description: as §1, §3, §4, §6

Ser. marcescens A20019 = assay: Antibiotic activity in nutrient broth (MIC); assay type: cell-based; conditions: derivatives adjusted for BL-S640 content
Description: as §1, §3, §4, §6

Pr. morganii A15153 = assay: Antibiotic activity in nutrient broth (MIC); assay type: cell-based; conditions: Morganella morganii, A15153, inoculum 10^-4; derivatives adjusted for BL-S640 content; read-out: MIC
Description: as §1, §3, §4, §6

Sal. enteritidis A9531 = assay: Antibiotic activity in nutrient broth (MIC); assay type: cell-based; conditions: Salmonella enterica, ENTERITIDIS, inoculum 10^-4; derivatives adjusted for BL-S640 content; read-out: MIC
Description: as §1, §3, §4, §6

K. pneumoniae A9977 [3] = assay: Antibiotic activity in nutrient broth (MIC); assay type: cell-based; conditions: Klebsiella pneumoniae, inoculum 10^-4, derivatives adjusted for BL-S640 content, read-out: MIC
Description: as §1, §3, §4, §6

S. aureus BX1633 A9606 = assay: Antibiotic activity in nutrient broth (MIC); assay type: cell-based; conditions: Staphylococcus aureus, derivatives adjusted for BL-S640 content, read-out: MIC
Description: as §1, §3, §4, §6

[4] = system: S. aureus Meth-Res A15097; assay: Antibiotic activity in nutrient broth (MIC); assay type: cell-based; conditions: inoculum 10^-3, Meth-Res, derivatives adjusted for BL-S640 content
Description: as §1, §3, §4, §6

P. mirabilis A9707 = assay: Oral PD50 in mice; assay type: in vivo; conditions: Proteus mirabilis, mice treated at 1 and 3.5 hours post-challenge
Protocol: (§9) Comparative Oral PD50 Values of
as §8
(§10) *Mice were treated at 1 and 3.5 hours post-challenge.

E. coli A15119 = assay: Oral PD50 in mice; assay type: in vivo; conditions: Escherichia coli, A15119, po, 3.5 h, read-out: PD50
Protocol: as §9, §8, §10

S. pyogenes A9604 = assay: Oral PD50 in mice; assay type: in vivo; conditions: Streptococcus pyogenes, mice treated at 1 and 3.5 hours post-challenge
Protocol: as §9, §8, §10

K. pneumoniae A9977 [5] = assay: Oral PD50 in mice; assay type: in vivo; conditions: Klebsiella pneumoniae, A9977, po, 3.5 h, read-out: PD50
Protocol: as §9, §8, §10

[6] = Example 2, 16 or 32 mice, read-out: Blood Levels
[7] = Table III, read-out: Mouse Blood Levels
[8] = Staphylococcus aureus, SMITHA9537, inoculum 10^-4, + 50% serum, read-out: MIC
[9] = Staphylococcus aureus, SMITHA9537, inoculum 10^-4, nutrient broth, read-out: MIC
[10] = Serratia marcescens, A20019, inoculum 10^-4
[11] = Staphylococcus aureus, read-out: MIC

Row | Compound | MIC (Str. pneumoniae A9585) [µg/mL] | MIC (Str. pyogenes A9604) [µg/mL] | concentration at 0.25 h [1, 6] [ng/mL] | concentration at 0.5 h [1, 6] [ng/mL] | concentration at 1 h [1, 6] [ng/mL] | concentration at 1.5 h [1, 6] [ng/mL] | Hydrolysis to the parent compound (BL-S640) [2] | ED50 (P. mirabilis A9900) [mg/kg] | MIC (Ps. aeruginosa A9843A) [µg/mL] | MIC (K. pneumoniae A15130) [µg/mL] | MIC (Ent. cloacae A9659) [µg/mL] | MIC (S. aureus Smith A9537; [8]) [µg/mL] | MIC (S. aureus Smith A9537; [9]) [µg/mL] | MIC (E. coli Juhl A15119) [µg/mL] | MIC (Ent. cloacae A9657) [µg/mL] | MIC (Pr. mirabilis A9900) [µg/mL] | MIC (Ent. cloacae A9656) [µg/mL] | MIC (E. coli A9675) [µg/mL] | MIC (Ser. marcescens A20019; [10]) [µg/mL] | MIC (Pr. morganii A15153) [µg/mL] | other results
1 | O=C(O)C1=C(CSc2cnn[nH]2)CS[C@@H]2[C@H](N3C(=O)[C@@H](c4ccc(O)cc4)NC3c3ccc(S(=O)(=O)O)o3)C(=O)N12 (stereo partly shown) [BL-S1027] | 0.03 | 0.03 | 15400 | 15100 | 11800 | 8200 | complete hydrolysis | 1.6 | > 125 | 1 (≈ 1.61 µM) | 32 (≈ 51.6 µM) | 2 | 0.27 (≈ 0.435 µM) | 1 (≈ 1.61 µM) | 1 (≈ 1.61 µM) | 0.5 (≈ 0.806 µM) | > 125 | 4 (≈ 6.44 µM) | > 125 | 32 (≈ 51.6 µM) | Mouse blood levels, intramuscular, compared with BL-S640 propylene glycol adduct ([1]; intramuscular, in words): approximately equal; concentration at 0.25 h [1, 7]: 16100 ng/mL; concentration at 0.5 h [1, 7]: 14800 ng/mL; concentration at 1 h [1, 7]: 11900 ng/mL; concentration at 1.5 h [1, 7]: 8000 ng/mL; MIC (S. aureus Smith A9537; inoculum 10^-4, nutrient broth): 0.25 µg/mL (≈ 0.403 µM); MIC (Ser. marcescens A20019; inoculum 10^-4): 125 µg/mL (≈ 201 µM); MIC (Sal. enteritidis A9531): 0.25 µg/mL (≈ 0.403 µM); MIC (K. pneumoniae A9977 [3]): 0.5 µg/mL (≈ 0.806 µM); MIC (S. aureus BX1633 A9606; BX1633A9606, inoculum 10^-2): 4 µg/mL (≈ 6.44 µM); MIC (S. aureus BX1633 A9606; BX1633A9606, inoculum 10^-3): 0.5 µg/mL (≈ 0.806 µM); MIC [4, 11]: 4 to 8 µg/mL (≈ 6.44 to 12.9 µM); MIC [4]: 4 µg/mL (≈ 6.44 µM); ED50 (P. mirabilis A9707): 1.8 mg/kg
2 | O=C(O)COc1ccccc1C1N[C@H](c2ccc(O)cc2)C(=O)N1[C@@H]1C(=O)N2C(C(=O)O)=C(CSc3cnn[nH]3)CS[C@H]12 (stereo partly shown) [BL-S1048] | 0.06 | 0.03 | 14800 | 14100 | 10300 | 7000 | complete hydrolysis | 1.6 | > 125 | 1 (≈ 1.6 µM) | 32 (≈ 51.2 µM) | 2 | 0.13 (≈ 0.208 µM) | 0.5 (≈ 0.8 µM) | 0.5 (≈ 0.8 µM) | 0.5 (≈ 0.8 µM) | > 125 | 2 (≈ 3.2 µM) | > 125 | 32 (≈ 51.2 µM) | MIC (Sal. enteritidis A9531): 0.13 µg/mL (≈ 0.208 µM); MIC (K. pneumoniae A9977 [3]): 0.5 µg/mL (≈ 0.8 µM); MIC (S. aureus BX1633 A9606; BX1633A9606, inoculum 10^-2): 2 µg/mL (≈ 3.2 µM); MIC (S. aureus BX1633 A9606; BX1633A9606, inoculum 10^-3): 0.25 µg/mL (≈ 0.4 µM); MIC [4, 11]: 4 µg/mL (≈ 6.4 µM); ED50 (E. coli A15119; oral, mice treated at 1 and 3.5 hours post-challenge): 3.1 mg/kg; ED50 (E. coli A15119): 1.6 mg/kg; ED50 (S. pyogenes A9604): 0.2 mg/kg; ED50 (K. pneumoniae A9977 [5]): 0.7 mg/kg; ED50 (P. mirabilis A9707): 2.4 mg/kg
